Test [1] deals with HIF‐1α protein level. Nature of the test: western blot of HIF‐1α protein level in cells. Type of test: cell-based, human. How it is done:
Cells were lysed with RIPA lysis (Epizyme, PC101) containing 1% cocktail protease inhibitors (MCE), and protein concentrations were determined by BCA kits (Beyotime, P0012S). Samples were denatured using DS‐PAGE Protein Staining and Loading Buffer (5×) (Beyotime, P0015L) followed by boiling for 10 min at 98 °C then the proteins were fractionated by 10% or 12.5% SDS‐PAGE and transferred to Cellulose Nitrate Membrane Filters (WHATMAN). After blocking in 5% non‐fat milk for 2 h at room temperature, the membrane was incubated overnight with specific antibodies at 4 °C, followed by horseradish peroxidase (HRP)‐linked anti‐mouse or anti‐rabbit secondary antibody (Cell Signaling Technology). Finally, An Immobilon Western Chemiluminescent HRP Substrate Kit (Merck Millipore) was used for protein bands detection. In addition, blots were probed with anti‐β‐actin (Merck, Darmstadt, Germany) antibody as the internal control.
(A western blot detects proteins with antibodies after separation by electrophoresis.)

For test [2], the system named is HIF‐1α target genes (VEGF and PDK1) mRNA expression. Put plainly: quantitative RT‐PCR of HIF‐1α target genes. The conditions noted are these: listed as HI‐101. In kind it is cell-based, human. The method, then:
(§1) Total RNA was isolated using Trizol reagent (Invitrogen). Complementary DNA was synthesized using a Reverse Transcriptase reagent (Promega). Fluorescence real‐time PCR was performed with the double‐stranded DNA dye SYBR Master Mix (Roche Diagnostics Corporation, Indianapolis, IN, USA) and the Applied Biosystems Step One Plus detection system (ABI 7900). The upstream and downstream gene‐specific primers were as follows. • HIF‐1α sense: 5′‐[…]‐3′, • HIF‐1α antisense: 5′‐[…]‐3′; • HIF‐1β sense: 5′‐[…]‐3′, • HIF‐1β antisense:5′‐[…]‐3′; • VEGF sense: 5′‐[…]‐3′, • VEGF antisense: 5′‐[…]‐3′; • PDK1 sense:5′‐[…]‐3′, • PDK1 antisense:5′‐GGAGGTCTCAACACGAGGT‐3′; • β‐actin sense: 5′‐[…]‐3′, • β‐actin antisense: 5′‐[…]‐3′; • ATP5D sense:5′‐ […]‐3′, • ATP5D antisense: 5′‐[…]‐3′; • ATP5E sense: 5′‐ […]‐3′, • ATP5E antisense:5′‐[…]‐3′; • ATP5F1 sense: 5′‐ […]‐3′, • ATP5F1 antisense:5′‐[…]‐3′.

Test [3] has as its system HIF‐1α and HIF‐1β mRNA expression. Nature of the test: RT‐qPCR of HIF‐1α and HIF‐1β mRNA. Type of test: cell-based, human.
Text: The whole protein synthesis process can be divided into four major steps: transcription, translation, posttranslational modifications and folding to a mature protein, and protein secretion.^[ [52] ^] We then investigated the potential effects of HI‐101 on HIF‐1α transcription and translation. […] On the basis of the existing experimental results, we draw a conclusion that HI‐101 inhibited the synthesis of nascent HIF‐1α protein without affecting its transcription.
as §1
(In general: Quantitative PCR measures a nucleic acid by following its amplification.)

Test [4] deals with HIF‐1α protein synthesis. Put plainly: AHA labeling assay of nascent HIF‐1α protein. In kind it is cell-based, human. The note with it: HEK293T, hypoxia, 10 or 20 µM. How it is done:
Lysosome and ubiquitin/proteasome systems are two main pathways for cellular protein degradation.^[ [49], [50] ^] MG‐132 and PS‐341 are potent, selective, and reversible proteasome inhibitors, chloroquine (CQ) and NH4Cl are autophagy inhibitors that inhibit lysosomal degradation by increasing lysosomal pH. MG‐132, PS‐341, CQ, NH4Cl, and DMSO at indicated concentrations were added to HEK293T cells for 6 h followed by treatment with DMSO or 10 µM HI‐101 for another 12 h under hypoxia condition. Cells were then collected, lysed, and immunoblotted to detect HIF‐1α protein level. […] In order to verify whether HI‐101 inhibited the synthesis of HIF‐1α protein, L‐azidohomoalanine (AHA) labeling assay^[ [51] ^] was carried out. The nascent protein was labeled by AHA incorporation, enriched by click reaction, and detected by anti‐biotin antibody.
HEK293T cells seeded in 10 cm dishes were added with DMSO or HI‐101 at concentrations 10 or 20 µM, then cultured in hypoxia incubator. The next day, cells were washed twice with PBS and incubated in DMEM without methionine for 4 h. At the same time, add […] (AHA) to all groups, and the positive control group treatment with cycloheximide (CHX). AHA concentration and incubation time were 50 µM and 4 h. […]

Test [5] addresses F1‐ATP synthase complex (Sus scrofa, UniProt K7GLT8+P80021). Nature of the test: fluorescence polarization binding assay. On the set-up: species or system pig. The conditions noted are these: F1‐ATPase 30 nM, HI‐103 4 nM, competitor 1 μM. From the text:
ATP5A and ATP5B are important components of FOF1–ATP synthase, also known as ATP synthase, which is a protein complex that catalyzes ATP synthesis by utilizing energy from the translocation of protons across biological membranes.^[ [40] ^] FOF1‐ATP synthase consists of two domains: the membrane‐spanning domain, FO, which acts as a proton channel, and the soluble catalytic domain, F1, which synthesizes ATP and is composed of nine subunits(α 3 β 3 γδɛ).^[ [41], [42], [43], [44] ^] […] To verify whether HI‐101 targeted ATP5A and ATP5B, we knocked down the subunits of F1 domains separately by shRNA.
F1‐ATPase at indicated concentrations was incubated with HI‐103 (4 nM), bodipy‐1 was as a negative molecule, conduct the experiment after incubating in 96‐well microplates of black polystyrene for 10 min. The FP results were analyzed with GraphPad Prism 9.0.
(In general: Polarisation of emitted light reports the rotation of a fluorescent probe.)

Entries after “also recorded” stand apart in the source; their conditions may differ.

Regarding `O=C(Nc1ccc(C23CC4CC(CC(C4)C2)C3)cc1)c1cccc(Cl)c1` [1‐3a, N‐(4‐((3r,5r,7r)‐Adamantan‐1‐yl)Phenyl)−3‐Chlorobenzamide], in test [1] (10 µM with 100 µg mL^−1 CHX, hypoxia), the “rate of HIF‐1α protein degradation” value is recorded as “did not have a significant effect on the rate of HIF‐1α protein degradation”. Also, the “HIF‐1α protein expression” value in test [1] (ATP5A or ATP5B knocked down by shRNA, up to 30 µM) is recorded as “failed to decrease HIF‐1α protein expression”. The “HIF‐1α protein level” value in test [1] (hit confirmation, Figure S5) is “significantly reduced HIF‐1α protein level”; in test [1] (hypoxia) it was “specifically reduced the protein level of HIF‐1α in a dose‐dependent manner”. Further, the “HIF‐1α target genes mRNA expression” value in test [2] was “significantly inhibited HIF‐1α transcriptional activity and the expressions of HIF‐1α target genes; also recorded: significantly decreased the mRNA expression of HIF‐1α target gene VEGF”. Also, the “HIF‐1α and HIF‐1β mRNA expression” value in test [3] was “did not affect HIF‐1α and HIF‐1β mRNA expression”. Moreover, the “HIF‐1α protein synthesis (nascent, AHA labeled)” value in test [4] is given as “significantly inhibited”. For the same compound, the “competitive fluorescence polarization binding” value in test [5] is “bound to F1‐ATP synthase complex in a similar way as HI‐103”.

The record behind these values is article PMC10477886, “Adamantaniline Derivatives Target ATP5B to Inhibit Translation of Hypoxia Inducible Factor‐1α” (Advanced Science, 2023).
